Reference: ChEMBL document CHEMBL1201862, “PubChem BioAssay data set” (2004)
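How tested: cells in 96-well plates exposed to compound for 48 hours at five concentrations. Here, GI50 denotes the concentration required for 50% inhibition of growth.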 Calls of active or inactive are those of the source. Rule as the data show it: active = GI50 up to about 1.1 µM and inactive = higher.

Assays:
Assay in all cases: inhibition of tumour cell growth, NCI panel, 48 h
RXF 393 = tested on: RXF 393
SF-268 = tested on: SF-268
M19-MEL = tested on: M19-MEL
KM12 = tested on: KM12
CCRF-CEM = tested on: CCRF-CEM
UO-31 = tested on: UO-31
NCI-H522 = tested on: NCI-H522
HOP-62 = tested on: HOP-62
M14 = tested on: M14
A498 = tested on: A498
SF-295 = tested on: SF-295
SNB-19 = tested on: SNB-19
EKVX = tested on: EKVX
U-251 = tested on: U-251
SK-MEL-28 = tested on: SK-MEL-28
NCI-H23 = tested on: NCI-H23
UACC-257 = tested on: UACC-257
OVCAR-5 = tested on: OVCAR-5
TK-10 = tested on: TK-10
DMS-273 = tested on: DMS-273
A549 = tested on: A549
SNB-78 = tested on: SNB-78
OVCAR-8 = tested on: OVCAR-8
ACHN = tested on: ACHN
HL-60 = tested on: HL-60
MOLT-4 = tested on: MOLT-4
IGROV-1 = tested on: IGROV-1
SK-OV-3 = tested on: SK-OV-3
NCI-H460 = tested on: NCI-H460
SR = tested on: SR
HT-29 = tested on: HT-29
HOP-92 = tested on: HOP-92
COLO 205 = tested on: COLO 205
DMS-114 = tested on: DMS-114
UACC-62 = tested on: UACC-62
OVCAR-4 = tested on: OVCAR-4
RPMI-8226 = tested on: RPMI-8226
SK-MEL-2 = tested on: SK-MEL-2
SNB-75 = tested on: SNB-75
OVCAR-3 = tested on: OVCAR-3
786-0 = tested on: 786-0
LXFL 529 = tested on: LXFL 529
K562 = tested on: K562
KM-20L2 = tested on: KM-20L2
HOP-18 = tested on: HOP-18
NCI-H226 = tested on: NCI-H226
SW-620 = tested on: SW-620
SF-539 = tested on: SF-539
HCT-15 = tested on: HCT-15
DLD-1 = tested on: DLD-1
CAKI-1 = tested on: CAKI-1
LOX IMVI = tested on: LOX IMVI
SK-MEL-5 = tested on: SK-MEL-5
SN12C = tested on: SN12C
HCT-116 = tested on: HCT-116
Malme-3M = tested on: Malme-3M

Which GI50 (RXF 393) does the source give for `COC1=C(OC)C(O)(c2ccccc2)C1=O` (configuration not stated) here?
The GI50 was > 100 µM (inactive).

What about the GI50 (SF-268) of the same compound?
Its GI50 is > 100 µM (inactive).

What about the GI50 (M19-MEL) of the same compound?
Its GI50 is > 100 µM (inactive).

What about the GI50 (KM12) of the same compound?
The GI50 was > 100 µM (inactive).

What about the GI50 (CCRF-CEM) of the same compound?
The GI50 was > 100 µM (inactive).

And the GI50 (UO-31)?
Its GI50 is > 100 µM (inactive).

What about the GI50 (NCI-H522) of the same compound?
The GI50 was > 100 µM (inactive).

What about the GI50 (HOP-62) of the same compound?
Its GI50 is > 100 µM (inactive).

What about the GI50 (M14) of the same compound?
The GI50 was > 100 µM (inactive).

What about the GI50 (A498) of the same compound?
Its GI50 is > 100 µM (inactive).

What about the GI50 (SF-295) of the same compound?
The GI50 was > 100 µM (inactive).

What about the GI50 (SNB-19) of the same compound?
Its GI50 is > 100 µM (inactive).

And the GI50 (EKVX)?
The GI50 was > 100 µM (inactive).

What about the GI50 (U-251) of the same compound?
The GI50 was > 100 µM (inactive).

What about the GI50 (SK-MEL-28) of the same compound?
The GI50 was > 100 µM (inactive).

And the GI50 (NCI-H23)?
The GI50 was > 100 µM (inactive).

And the GI50 (UACC-257)?
The GI50 was > 100 µM (inactive).

And the GI50 (OVCAR-5)?
The GI50 was > 100 µM (inactive).

And the GI50 (TK-10)?
The GI50 was 22.2 µM (inactive).

What about the GI50 (DMS-273) of the same compound?
Its GI50 is > 100 µM (inactive).

And the GI50 (A549)?
The GI50 was > 100 µM (inactive).

And the GI50 (SNB-78)?
The GI50 was > 100 µM (inactive).

And the GI50 (OVCAR-8)?
Its GI50 is > 100 µM (inactive).

And the GI50 (ACHN)?
The GI50 was > 100 µM (inactive).

What about the GI50 (HL-60) of the same compound?
The GI50 was > 100 µM (inactive).

What about the GI50 (MOLT-4) of the same compound?
Its GI50 is > 100 µM (inactive).

And the GI50 (IGROV-1)?
Its GI50 is > 100 µM (inactive).

And the GI50 (SK-OV-3)?
The GI50 was > 100 µM (inactive).

What about the GI50 (NCI-H460) of the same compound?
The GI50 was > 100 µM (inactive).

What about the GI50 (SR) of the same compound?
Its GI50 is > 100 µM (inactive).

And the GI50 (HT-29)?
Its GI50 is > 100 µM (inactive).

And the GI50 (HOP-92)?
Its GI50 is > 100 µM (inactive).

Which results are given for `[N-]=[N+]=NC1(c2ccccc2)C(=O)c2cccc3c2N(CCC3)C1=O` (configuration not stated)?
GI50 (RXF 393): > 100 µM (inactive); GI50 (COLO 205): 88.3 µM (inactive); GI50 (SF-268): 94.2 µM (inactive); GI50 (M19-MEL): 60.7 µM (inactive); GI50 (KM12): 43.4 µM (inactive); GI50 (DMS-114): 44.5 µM (inactive); GI50 (UO-31): 18.1 µM (inactive); GI50 (UACC-62): 92.7 µM (inactive); GI50 (NCI-H522): 27 µM (inactive); GI50 (HOP-62): > 100 µM (inactive); GI50 (M14): 36.9 µM (inactive); GI50 (A498): 54.6 µM (inactive); GI50 (SF-295): 34.5 µM (inactive); GI50 (SNB-19): 97.5 µM (inactive); GI50 (U-251): 72.3 µM (inactive); GI50 (SK-MEL-28): > 100 µM (inactive); GI50 (OVCAR-4): 55.8 µM (inactive); GI50 (RPMI-8226): 27.7 µM (inactive); GI50 (NCI-H23): 49.7 µM (inactive); GI50 (UACC-257): 32.3 µM (inactive); GI50 (SK-MEL-2): > 100 µM (inactive); GI50 (OVCAR-5): > 100 µM (inactive); GI50 (SNB-75): 31.8 µM (inactive); GI50 (OVCAR-3): 29.9 µM (inactive); GI50 (SNB-78): 45.1 µM (inactive); GI50 (ACHN): 54.1 µM (inactive); GI50 (HL-60): 21.4 µM (inactive); GI50 (786-0): > 100 µM (inactive); GI50 (MOLT-4): 31.8 µM (inactive); GI50 (LXFL 529): 56.9 µM (inactive); GI50 (IGROV-1): 84.9 µM (inactive); GI50 (SK-OV-3): 92.9 µM (inactive); GI50 (NCI-H460): 92.3 µM (inactive); GI50 (K562): 27.7 µM (inactive); GI50 (SR): 36 µM (inactive); GI50 (HT-29): 47.4 µM (inactive); GI50 (HOP-92): 33.6 µM (inactive); GI50 (KM-20L2): > 100 µM (inactive)

For `N#CC(NNC(=O)c1ccccc1O)c1ccccc1O` (configuration not stated), which GI50 (RXF 393) is on record?
Its GI50 is 12.8 µM (inactive).

And the GI50 (COLO 205)?
Its GI50 is 33.5 µM (inactive).

What about the GI50 (SF-268) of the same compound?
Its GI50 is 2.29 µM (inactive).

What about the GI50 (M19-MEL) of the same compound?
The GI50 was 4.45 µM (inactive).

And the GI50 (KM12)?
Its GI50 is 5.82 µM (inactive).

And the GI50 (CCRF-CEM)?
The GI50 was 2.06 µM (inactive).

And the GI50 (UO-31)?
Its GI50 is 2.91 µM (inactive).

What about the GI50 (UACC-62) of the same compound?
The GI50 was 2.72 µM (inactive).

What about the GI50 (NCI-H522) of the same compound?
Its GI50 is 8.87 µM (inactive).

And the GI50 (HOP-18)?
The GI50 was 4.65 µM (inactive).

And the GI50 (HOP-62)?
Its GI50 is 8.45 µM (inactive).

What about the GI50 (M14) of the same compound?
Its GI50 is 5.65 µM (inactive).

What about the GI50 (SF-295) of the same compound?
The GI50 was 9.23 µM (inactive).

What about the GI50 (U-251) of the same compound?
The GI50 was 4.18 µM (inactive).

What about the GI50 (SK-MEL-28) of the same compound?
Its GI50 is 10.9 µM (inactive).

What about the GI50 (OVCAR-4) of the same compound?
Its GI50 is 9.64 µM (inactive).

And the GI50 (NCI-H226)?
The GI50 was 3.18 µM (inactive).

What about the GI50 (RPMI-8226) of the same compound?
The GI50 was 4.03 µM (inactive).

What about the GI50 (NCI-H23) of the same compound?
Its GI50 is 2.06 µM (inactive).

What about the GI50 (UACC-257) of the same compound?
The GI50 was 4.06 µM (inactive).

What about the GI50 (SK-MEL-2) of the same compound?
Its GI50 is 31.3 µM (inactive).

What about the GI50 (OVCAR-5) of the same compound?
The GI50 was 27.1 µM (inactive).

And the GI50 (TK-10)?
Its GI50 is 68.9 µM (inactive).

What about the GI50 (SNB-75) of the same compound?
The GI50 was 18.5 µM (inactive).

And the GI50 (DMS-273)?
The GI50 was 2.38 µM (inactive).

And the GI50 (SW-620)?
Its GI50 is 7.66 µM (inactive).

And the GI50 (A549)?
Its GI50 is 8.69 µM (inactive).

What about the GI50 (SF-539) of the same compound?
The GI50 was 4.06 µM (inactive).

And the GI50 (HCT-15)?
The GI50 was 3.85 µM.

And the GI50 (DLD-1)?
The GI50 was 3.26 µM (inactive).

And the GI50 (OVCAR-3)?
Its GI50 is 2.52 µM (inactive).

And the GI50 (SNB-78)?
The GI50 was 38.3 µM (inactive).

What about the GI50 (OVCAR-8) of the same compound?
Its GI50 is 3.58 µM (inactive).

What about the GI50 (CAKI-1) of the same compound?
The GI50 was 3.27 µM (inactive).

And the GI50 (LOX IMVI)?
Its GI50 is 3.78 µM (inactive).

What about the GI50 (ACHN) of the same compound?
The GI50 was 2.44 µM (inactive).

What about the GI50 (HL-60) of the same compound?
The GI50 was 1.27 µM (inactive).

What about the GI50 (SK-MEL-5) of the same compound?
The GI50 was 8.89 µM (inactive).

And the GI50 (786-0)?
Its GI50 is 3.55 µM (inactive).

What about the GI50 (MOLT-4) of the same compound?
Its GI50 is 2.23 µM (inactive).

And the GI50 (SN12C)?
The GI50 was 5.27 µM (inactive).

What about the GI50 (LXFL 529) of the same compound?
The GI50 was 18.6 µM (inactive).

And the GI50 (HCT-116)?
Its GI50 is 4.29 µM (inactive).

What about the GI50 (IGROV-1) of the same compound?
Its GI50 is 2.6 µM (inactive).

What about the GI50 (Malme-3M) of the same compound?
The GI50 was 10 µM (inactive).

And the GI50 (SK-OV-3)?
The GI50 was 9.53 µM (inactive).

And the GI50 (NCI-H460)?
Its GI50 is 4.85 µM (inactive).

What about the GI50 (K562) of the same compound?
The GI50 was 5.43 µM (inactive).

And the GI50 (SR)?
Its GI50 is 0.472 µM (active).

What about the GI50 (HT-29) of the same compound?
Its GI50 is 41.4 µM (inactive).

What about the GI50 (HOP-92) of the same compound?
Its GI50 is 13.6 µM (inactive).

What about the GI50 (KM-20L2) of the same compound?
The GI50 was 32.8 µM (inactive).
